What was measured:
Rattus norvegicus [1] = assay: Analysis of lipid-soluble radioactivity in liver 24 hour after iv administration of [125I]-labeled 2-Oleoyl 1,3-disubstituted Triacylglycerols and represented as % CHCl3/CH3OH from rat; format: ADME, organism-based; conditions: in vivo
Rattus norvegicus [2] = assay: Distribution of radioactivity was determined in liver at 24 hr after intravenous administration of 1,3-Disubstituted Triacylglycerols in rats; format: ADME, organism-based; conditions: in vivo
Rattus norvegicus [3] = assay: Distribution of radioactivity was determined in liver at 30 min after intravenous administration of 1,3-Disubstituted Triacylglycerols in rats; format: ADME, organism-based; conditions: in vivo, 0.5 h
Rattus norvegicus [4] = assay: Distribution of radioactivity was determined in kidney at 24 hr after intravenous administration of [125I]-labeled 2-oleoglycerol 1,3-Bis-[omega-(3-amino-2,4,6-triiodophenyl)alkanoates] in rats; format: ADME, organism-based; conditions: in vivo
Rattus norvegicus [5] = assay: Polyacrylamide Gel Electrophoresis (PAGE) to determined the concentration of high density lipoprotein (HDL) in rats after iv administration of [125I]-labeled 2-Oleolyl 1,3-disubstituted triglycerols was reported; format: ADME, organism-based; conditions: in vivo
Rattus norvegicus [6] = assay: Distribution of radioactivity was determined in plasma at 30 min after intravenous administration of [125I]-labeled 2-oleoglycerol 1,3-Bis-[omega-(3-amino-2,4,6-triiodophenyl)alkanoates] in rats; format: ADME, organism-based; conditions: in vivo, 0.5 h
Rattus norvegicus [7] = assay: Distribution of radioactivity was determined in lung at 24 hr after intravenous administration of [125I]-labeled 2-oleoglycerol 1,3-Bis-[omega-(3-amino-2,4,6-triiodophenyl)alkanoates] in rats; format: ADME, organism-based; conditions: in vivo
Rattus norvegicus [8] = assay: Polyacrylamide Gel Electrophoresis (PAGE) to determined the concentration of stacking gel(SG) in rats after iv administration of [125I]-labeled 2-Oleolyl 1,3-disubstituted triglycerols was reported; format: ADME, organism-based; conditions: in vivo
Rattus norvegicus [9] = assay: Distribution of radioactivity was determined in spleen at 48 hr after intravenous administration of 1,3-Disubstituted Triacylglycerols in rats; format: ADME, organism-based; conditions: in vivo
Rattus norvegicus [10] = assay: Polyacrylamide Gel Electrophoresis (PAGE) to determined the concentration of below albumin(BA) in rats after iv administration of [125I]-labeled 2-Oleolyl 1,3-disubstituted triglycerols was reported; format: ADME, organism-based; conditions: in vivo
Rattus norvegicus [11] = assay: Distribution of radioactivity was determined in kidney at 30 min after intravenous administration of [125I]-labeled 2-oleoglycerol 1,3-Bis-[omega-(3-amino-2,4,6-triiodophenyl)alkanoates] in rats; format: ADME, organism-based; conditions: in vivo, 0.5 h
Rattus norvegicus [12] = assay: Analysis of lipid-soluble radioactivity in plasma 24 hour after iv administration of [125I]-labeled 2-Oleoyl 1,3-disubstituted Triacylglycerols and represented as % CHCl3/CH3OH from rat; format: ADME, organism-based; conditions: in vivo
Rattus norvegicus [13] = assay: Analysis of lipid-soluble radioactivity in plasma 0.5 hour after iv administration of [125I]-labeled 2-Oleoyl 1,3-disubstituted Triacylglycerols expressed as %parent compound (by TLC with authentic [125I]-labeled standard) from rat; format: ADME, organism-based; conditions: in vivo
Rattus norvegicus [14] = assay: Distribution of radioactivity was determined in blood at 24 hr after intravenous administration of 1,3-Disubstituted Triacylglycerols in rats; format: ADME, organism-based; conditions: in vivo
Rattus norvegicus [15] = assay: Analysis of lipid-soluble radioactivity in liver 24 hour after iv administration of [125I]-labeled 2-Oleoyl 1,3-disubstituted Triacylglycerols expressed as %parent compound (by TLC with authentic [125I]-labeled standard) from rat; format: ADME, organism-based; conditions: in vivo
Rattus norvegicus [16] = assay: Polyacrylamide Gel Electrophoresis (PAGE) to determined the concentration of low density lipoprotein (LDL) in rats after iv administration of [125I]-labeled 2-Oleolyl 1,3-disubstituted triglycerols was reported; format: ADME, organism-based; conditions: in vivo
Rattus norvegicus [17] = assay: Distribution of radioactivity was determined in heart at 24 after intravenous administration of [125I]-labeled 2-oleoglycerol 1,3-Bis-[omega-(3-amino-2,4,6-triiodophenyl)alkanoates] in rats; format: ADME, organism-based; conditions: in vivo
Rattus norvegicus [18] = assay: Distribution of radioactivity was determined in spleen at 24 hr after intravenous administration of [125I]-labeled 2-oleoglycerol 1,3-Bis-[omega-(3-amino-2,4,6-triiodophenyl)alkanoates] in rats; format: ADME, organism-based; conditions: in vivo
Rattus norvegicus [19] = assay: Distribution of radioactivity was determined in liver at 3h after intravenous administration of [125I]-labeled 2-oleoglycerol 1,3-Bis-[omega-(3-amino-2,4,6-triiodophenyl)alkanoates] in rats; format: ADME, organism-based; conditions: in vivo
Rattus norvegicus [20] = assay: Distribution of radioactivity was determined in blood at 48 hr after intravenous administration of 1,3-Disubstituted Triacylglycerols in rats; format: ADME, organism-based; conditions: in vivo
Rattus norvegicus [21] = assay: Distribution of radioactivity was determined in heart at 30 min after intravenous administration of [125I]-labeled 2-oleoglycerol 1,3-Bis-[omega-(3-amino-2,4,6-triiodophenyl)alkanoates] in rats; format: ADME, organism-based; conditions: in vivo, 0.5 h
Rattus norvegicus [22] = assay: Distribution of radioactivity was determined in spleen at 3h after intravenous administration of [125I]-labeled 2-oleoglycerol 1,3-Bis-[omega-(3-amino-2,4,6-triiodophenyl)alkanoates] in rats; format: ADME, organism-based; conditions: in vivo
Rattus norvegicus [23] = assay: Distribution of radioactivity was determined in lung at 30 min after intravenous administration of [125I]-labeled 2-oleoglycerol 1,3-Bis-[omega-(3-amino-2,4,6-triiodophenyl)alkanoates] in rats; format: ADME, organism-based; conditions: in vivo, 0.5 h
Rattus norvegicus [24] = assay: Analysis of lipid-soluble radioactivity in plasma 0.5 hour after iv administration of [125I]-labeled 2-Oleoyl 1,3-disubstituted Triacylglycerols and represented as % CHCl3/CH3OH from rat; format: ADME, organism-based; conditions: in vivo
Rattus norvegicus [25] = assay: Distribution of radioactivity was determined in blood at 24 hr after intravenous administration of [125I]-labeled 2-oleoglycerol 1,3-Bis-[omega-(3-amino-2,4,6-triiodophenyl)alkanoates] in rats; format: ADME, organism-based; conditions: in vivo
Rattus norvegicus [26] = assay: Distribution of radioactivity was determined in liver at 30 min after intravenous administration of [125I]-labeled 2-oleoglycerol 1,3-Bis-[omega-(3-amino-2,4,6-triiodophenyl)alkanoates] in rats; format: ADME, organism-based; conditions: in vivo, 0.5 h
Rattus norvegicus [27] = assay: Distribution of radioactivity was determined in lung at 3h after intravenous administration of [125I]-labeled 2-oleoglycerol 1,3-Bis-[omega-(3-amino-2,4,6-triiodophenyl)alkanoates] in rats; format: ADME, organism-based; conditions: in vivo
Rattus norvegicus [28] = assay: Distribution of radioactivity was determined in thyroid at 24 hr after intravenous administration of [125I]-labeled 2-oleoglycerol 1,3-Bis-[omega-(3-amino-2,4,6-triiodophenyl)alkanoates] in rats; format: ADME, organism-based, Thyroid gland; conditions: in vivo
Rattus norvegicus [29] = assay: Distribution of radioactivity was determined in liver at 24 hr after intravenous administration of [125I]-labeled 2-oleoglycerol 1,3-Bis-[omega-(3-amino-2,4,6-triiodophenyl)alkanoates] in rats; format: ADME, organism-based; conditions: in vivo
Rattus norvegicus [30] = assay: Distribution of radioactivity was determined in blood at 30 min after intravenous administration of 1,3-Disubstituted Triacylglycerols in rats; format: ADME, organism-based; conditions: in vivo, 0.5 h
Rattus norvegicus [31] = assay: Distribution of radioactivity was determined in spleen at 3h after intravenous administration of 1,3-Disubstituted Triacylglycerols in rats; format: ADME, organism-based; conditions: in vivo
Rattus norvegicus [32] = assay: Distribution of radioactivity was determined in liver at 3h after intravenous administration of 1,3-Disubstituted Triacylglycerols in rats; format: ADME, organism-based; conditions: in vivo
Rattus norvegicus [33] = assay: Distribution of radioactivity was determined in liver at 48 hr after intravenous administration of 1,3-Disubstituted Triacylglycerols in rats; format: ADME, organism-based; conditions: in vivo
Rattus norvegicus [34] = assay: Distribution of radioactivity was determined in spleen at 30 min after intravenous administration of 1,3-Disubstituted Triacylglycerols in rats; format: ADME, organism-based; conditions: in vivo, 0.5 h
Rattus norvegicus [35] = assay: Distribution of radioactivity was determined in spleen at 24 hr after intravenous administration of 1,3-Disubstituted Triacylglycerols in rats; format: ADME, organism-based; conditions: in vivo

SMILES	Lipid-soluble radioactivity (Rattus norvegicus [1])	Distribution of radioactivity (Rattus norvegicus [2])	Radioactivity per organ (Rattus norvegicus [3])	Distribution of radioactivity (Rattus norvegicus [4])	Radioactivity (Rattus norvegicus [5])	Distribution of radioactivity (Rattus norvegicus [6])	Distribution of radioactivity (Rattus norvegicus [7])	Radioactivity (Rattus norvegicus [8])	Distribution of radioactivity (Rattus norvegicus [9])	Radioactivity (Rattus norvegicus [10])	Distribution of radioactivity (Rattus norvegicus [11])	Lipid-soluble radioactivity (Rattus norvegicus [12])	Lipid-soluble radioactivity (Rattus norvegicus [13])	Distribution of radioactivity (Rattus norvegicus [14])	Lipid-soluble radioactivity (Rattus norvegicus [15])	Radioactivity (Rattus norvegicus [16])	Distribution of radioactivity (Rattus norvegicus [17])	Distribution of radioactivity (Rattus norvegicus [18])	Distribution of radioactivity (Rattus norvegicus [19])	Distribution of radioactivity (Rattus norvegicus [20])	further results
CCCCCCCC/C=C/CCCCCCCC(=O)OC(COC(=O)CCCCc1c(I)cc(I)c(N)c1I)COC(=O)CCCCc1c(I)cc(I)c(N)c1I	88.8	36.1 % dose/organ	65.1 % dose/organ	0.2 % dose/g	5.5%	0.1 % dose/g	0.59 % dose/g	65.6%	3.7 % dose per organ	0.1%	0.05 % dose/g	54.5	42.3	1.4 % dose/organ	86.5	8.1%	0.07 % dose/g	13.7 % dose/g	6.94 % dose/g	0.7 % dose per organ	Distribution of radioactivity (Rattus norvegicus [21]): 0.59 % dose/g; Distribution of radioactivity (Rattus norvegicus [22]): 14.5 % dose/g; Distribution of radioactivity (Rattus norvegicus [23]): 0.54 % dose/g; Lipid-soluble radioactivity (Rattus norvegicus [24]): 77.4; Distribution of radioactivity (Rattus norvegicus [25]): 0.14 % dose/g; Distribution of radioactivity (Rattus norvegicus [26]): 7.37 % dose/g; Distribution of radioactivity (Rattus norvegicus [27]): 0.46 % dose/g; Distribution of radioactivity (Rattus norvegicus [28]): 6.74 % dose/g; Distribution of radioactivity (Rattus norvegicus [29]): 4.53 % dose/g; Distribution of radioactivity (Rattus norvegicus [30]): 0.9 % dose/organ; Distribution of radioactivity (Rattus norvegicus [31]): 8 % dose/organ; Distribution of radioactivity (Rattus norvegicus [32]): 60.7 % dose/organ; Distribution of radioactivity (Rattus norvegicus [33]): 26.8 % dose/organ; Distribution of radioactivity (Rattus norvegicus [34]): 9.5 % dose/organ; Distribution of radioactivity (Rattus norvegicus [35]): 6.4 % dose/organ
CCCCCCCC/C=C/CCCCCCCC(=O)OC(COC(=O)CCCCCCc1c(I)cc(I)c(N)c1I)COC(=O)CCCCCCc1c(I)cc(I)c(N)c1I	30.2	9.6 % dose/organ	67.7 % dose/organ	0.22 % dose/g	0.3%	0.83 % dose/g	0.29 % dose/g	28.1%	0.3 % dose per organ	5.1%	0.2 % dose/g	15.3	0	2.5 % dose/organ	0	0.2%	0.1 % dose/g	1.43 % dose/g	5.84 % dose/g	0.4 % dose per organ	Distribution of radioactivity (Rattus norvegicus [21]): 0.55 % dose/g; Distribution of radioactivity (Rattus norvegicus [22]): 15.3 % dose/g; Distribution of radioactivity (Rattus norvegicus [23]): 0.66 % dose/g; Lipid-soluble radioactivity (Rattus norvegicus [24]): 36.1; Distribution of radioactivity (Rattus norvegicus [25]): 0.22 % dose/g; Distribution of radioactivity (Rattus norvegicus [26]): 7.23 % dose/g; Distribution of radioactivity (Rattus norvegicus [27]): 0.34 % dose/g; Distribution of radioactivity (Rattus norvegicus [28]): 6.53 % dose/g; Distribution of radioactivity (Rattus norvegicus [29]): 1.1 % dose/g; Distribution of radioactivity (Rattus norvegicus [30]): 6.6 % dose/organ; Distribution of radioactivity (Rattus norvegicus [31]): 8.2 % dose/organ; Distribution of radioactivity (Rattus norvegicus [32]): 45.8 % dose/organ; Distribution of radioactivity (Rattus norvegicus [33]): 4.4 % dose/organ; Distribution of radioactivity (Rattus norvegicus [34]): 10.5 % dose/organ; Distribution of radioactivity (Rattus norvegicus [35]): 0.8 % dose/organ

From ChEMBL document CHEMBL1128242, “Polyiodinated triglyceride analogs as potential computed tomography imaging agents for the liver” (J Med Chem, 1995)
